Data on six compounds can be found in publication PMC3907362, “Synthetic cationic antimicrobial peptides bind with their hydrophobic parts to drug site II of human serum albumin” (BMC Structural Biology, 2014).

Where “and” joins values, the source holds several entries; their conditions need not be identical. Identical values can stand only once. Entries after “also recorded” stand apart in the source; their conditions may differ. Like-named read-outs stand apart in the source and are kept apart here. Residues, ends and D or L forms follow the SMILES beside them. Some results are limits rather than exact numbers.

For one assay, the target named is HSA (Homo sapiens, UniProt P02768). As to the kind of experiment: NMR WaterLOGSY. Particulars: HSA:ligand 1:20. The format is binding. An excerpt:
All NMR experiments were acquired on an Agilent (Varian) inova spectrometer operating at 599.934 MHz for ^1H, equipped with a 2nd generation inverse triple resonance HCN cold probe. […] The difference spectra were produced by internal subtraction and all spectra were acquired with both sculpted solvent suppression during the PFG spin echo and 500 ms solvent presaturation during the relaxation delay. The protein signals were suppressed by a 10 ms T1ρ-spinlock. Finally, the spectra were multiplied with a 3 Hz exponential window function. For reference, double PFG spin echo 1D proton spectra were acquired using the same parameters, including the 10 ms T1ρ-spinlock for protein suppression. […] All samples were monitored for line broadening, quickened relaxation and NOE inversion to spot any direct interaction between ligands before the addition of HSA.

The test system of assay [1] is Escherichia coli ATCC 25922. It is filed as cell-based. How it is done:
(§1) The antibacterial activity of CAP 1 and CAP 5 were tested towards Staphylococcus aureus strain ATCC 25923, methicillin resistant Staphylococcus aureus strain ATCC 33591 and Escherichia coli strain ATCC 25922. The studies were performed by Toslab AS employing standard methods.

Assay [2] deals with Methicillin resistant Staphylococcus aureus ATCC 33591. The format is cell-based. How it is done:
as §1

Assay [3] relates to Staphylococcus aureus strain ATCC 25923. The format is cell-based. How it is done:
as §1

The next assay relates to selected bacteria. As to the kind of experiment: MIC towards selected bacteria, summary over strains. The format is cell-based. Particulars: all bacterial strains tested. As to the method:
as §1

The target of assay [4] is T1, human serum albumin (HSA) (Homo sapiens, UniProt P02768). As to the kind of experiment: Non-competitive isothermal titration calorimetry (ITC). Particulars: for Kd: pH 7.4. How it is done:
The experiments were either performed on a CSC 5300 Nano-Isothermal Titration Calorimeter III (Calorimetry Sciences Corporation, Utah, USA) with a cell volume of 1 mL, or a MicroCal™ iTC200 with a cell volume of 200 μL (MicroCal, LLC., Northampton, MA, USA). In all experiments lyophilized HSA ~99% essential fatty acid and globulin free (Sigma A3782), was weighed out to a nominal concentration and dissolved prior to the experiments in buffer 50 mM Tris, 10 mM CaCl2, pH 7.4 at 25°C. All ligands and peptides were dissolved in the same buffer. Control titrations of ligand into buffer were performed in duplicate to investigate if the heat of dilution would generate a significant signal, and if ligand-ligand interactions were present in the competitive experiments. The same settings as for the corresponding ligand-HSA experiments were applied in the control experiments.
A stirring rate of 150 rpm and an isotherm temperature of 25°C were applied. The response signal was measured at 1 s intervals, and a 200 s baseline was collected prior to the first injection for the purpose of assessing the baseline. Non-competitive experiments were carried out either in duplicates or triplicates. […] In total 40 consecutive injections were performed with a volume of 5 μL and a spacing of 300 s. […] Prior to the first injection, a baseline of 100 s was recorded to ensure instrument stability. The solution was stirred at 150 rpm, and the isothermal temperature set to 25°C. All competitive experiments were carried out in duplicate. […] The first injection was set to a dummy volume of 0.1 μL due to syringe leakage in the baseline equilibration step. An initial delay of 180 s was set to sample the baseline. The applied reference power was 6 μcal/s and an isothermal temperature of 25°C was used. […] For the selected peptides CAP 3 and CAP 5 competitive experiments with reversed order of the reference ligands and the CAP were performed as a control of titration order. The same ITC settings were applied for the non-competitive and competitive experiments with the MicroCal™ iTC200.
The ITC data was analyzed using the NanoAnalyse software from TA Instruments, v2.0.1 (Waters LLC, New Castle, DE, US) or Origin® 7.0. Independent model fit was used to generate the binding isotherm, and the first injection in all titration experiments was omitted in the binding isotherm analysis. The heat of dilution and unspecific binding signal corresponding to the last injection in each experiment was subtracted from all of the heat signals. The quality of the model fit was examined using the statistical modules of the software, the 95% confidence interval based on a 1000 trial calculations in the NanoAnalyze package, and the default non-weighted least square calculation in Origin® 7.0.

Assay [5] deals with T1, human serum albumin (HSA). Also on record: purchased Sigma A3782. Particulars: HSA drug site II; ref [34],[35]; read-out: binding affinity (Kd), reported in other studies; cited from earlier work.
The mark [6] stands for this setting: Kd, CSC 5300 Nano-Isothermal Titration Calorimeter III, 25°C.
The mark [7] stands for this setting: Kd, MicroCal iTC200 (values in parenthesis), 25°C.
Setting [8] is: CSC 5300 Nano-Isothermal Titration Calorimeter III.
[9] abbreviates: MicroCal iTC200 (values in parenthesis).

Chain of HSA (P02768 25-609): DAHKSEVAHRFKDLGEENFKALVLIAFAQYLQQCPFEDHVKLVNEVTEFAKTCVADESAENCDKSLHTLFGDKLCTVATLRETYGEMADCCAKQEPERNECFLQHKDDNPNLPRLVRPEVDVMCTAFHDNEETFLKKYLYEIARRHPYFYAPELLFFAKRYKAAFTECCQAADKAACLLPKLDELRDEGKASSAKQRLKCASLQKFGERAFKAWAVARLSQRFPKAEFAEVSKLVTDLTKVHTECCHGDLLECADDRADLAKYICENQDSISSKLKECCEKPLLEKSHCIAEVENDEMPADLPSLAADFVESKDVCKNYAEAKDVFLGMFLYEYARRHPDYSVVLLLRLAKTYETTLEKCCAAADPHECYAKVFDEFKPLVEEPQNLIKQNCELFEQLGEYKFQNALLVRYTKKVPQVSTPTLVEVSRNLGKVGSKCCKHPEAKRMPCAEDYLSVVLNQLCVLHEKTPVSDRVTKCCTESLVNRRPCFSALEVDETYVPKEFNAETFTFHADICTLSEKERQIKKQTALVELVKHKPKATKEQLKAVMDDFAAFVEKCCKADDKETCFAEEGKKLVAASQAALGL
T1 sequence (P02768 25-609): as above

What is called Kd is the free concentration of one partner at which half of the binding sites on the other are occupied at equilibrium, for simple one-to-one binding. On to `C[C@H](NC(=O)[C@@H](N)CCCNC(=N)N)C(=O)N[C@@H](CCCNC(=N)N)C(N)=O` [CAP 1] (H-Arg-Ala-Arg-NH2), for which, on HSA, the “WaterLOGSY binding to HSA” value is “does not interact directly with HSA and does not and not”. Besides, the “MIC E. coli” value in assay [1] was above 499 µM. The “MIC MRSA” value in assay [2] is above 499 µM. The “MIC S. aureus” value in assay [3] is above 499 µM. Besides, in the assay on selected bacteria, the “Antimicrobial activity (MIC relative to threshold)” value is “inactive”. Moreover, the “Binding to HSA by ITC, in words” value in assay [4] (non-competitive ITC) is listed as “did not bind to HSA; also recorded: does not bind to HSA”. Further, the Kd entry in assay [4] is “-”.
In turn, `N=C(N)NCCC[C@H](NC(=O)[C@H](Cc1c[nH]c2ccccc12)NC(=O)[C@@H](N)CCCNC(=N)N)C(=O)NCc1ccccc1` [CAP 2] (HELM PEPTIDE1{R.W.R.[c1ccc(CN[*:1])cc1]}$$$$V2.0) registered a Kd in assay [4] (setting [6]) of 23 ± 8 µM.
Consider `N=C(N)NCCC[C@H](NC(=O)[C@H](Cc1ccc(-c2ccccc2)cc1)NC(=O)[C@@H](N)CCCNC(=N)N)C(=O)NCc1ccccc1` [CAP 3] (HELM PEPTIDE1{R.[O=C([C@H](Cc1ccc(-c2ccccc2)cc1)N[*:1])[*:2]].R.[c1ccc(CN[*:1])cc1]}$$$$V2.0), for which the Kd in assay [4] (setting [6]) was 22 ± 9 µM; in assay [4] (setting [7]), 99 µM.
On to `CC(C)(C)c1cc(C(C)(C)C)c2[nH]c(C(C)(C)C)c(C[C@H](NC(=O)[C@@H](N)CCCNC(=N)N)C(=O)N[C@@H](CCCNC(=N)N)C(=O)NCc3ccccc3)c2c1` [CAP 4], for which the Kd in assay [4] (setting [6]) came to 25 ± 9 µM.
On to `C[C@H](N)C(=O)N[C@@H](Cc1ccc(-c2ccccc2)cc1)C(=O)N[C@@H](C)C(N)=O` [CAP 5], for which the “MIC E. coli” value in assay [1] is above 523 µM. Also, the “MIC MRSA” value in assay [2] is above 523 µM. The “MIC S. aureus” value in assay [3] is above 523 µM. In assay [4] (setting [7]), the equilibrium dissociation constant (Kd) was found to be 100 µM.
As to `CN(C)c1cccc2c(S(=O)(=O)NCC(=O)O)cccc12` [Dgly, dansylglycine], the “WaterLOGSY binding to HSA” value on HSA is “clear WaterLOGSY effect”. Also, the Kd was 1.7 to 3.2 µM in assay [5], 11 ± 4 µM in assay [4] (setting [6]) and 40 µM in assay [4] (setting [7]). For the same compound, the results for the TΔS in assay [4] (setting [8]) and in assay [4] (setting [9]) were 2.3 ± 0.5 kcal/mol and 0.5 ± 0.1 kcal/mol, respectively. Moreover, the figures for the “n (stoichiometric ratio)” value in assay [4] (setting [8]) and in assay [4] (setting [9]) were 1.08 ± 0.05 and 1.16 ± 0.01, respectively. For the same compound, the ΔH in assay [4] (setting [8]) is on record as -4.5 ± 0.3 kcal/mol; in assay [4] (setting [9]), -5.5 ± 0.1 kcal/mol. Moreover, the ΔG in assay [4] (setting [9]) was -6.0 kcal/mol and -6.00 ± 0.02 kcal/mol.
